# Test results taken from the METLIN SMRT retention time set (Domingo-Almenara et al. 2019).
# Assay: gradient 5% acetonitrile 3 min, to 50% in 2 min, to 85% in 15 min, held 3 min, 100 µL/min
# Conditions: column: Zorbax Extend-C18 2.1 x 50 mm; eluents: water / acetonitrile, 0.1% formic acid
# Procedure, shortened: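 Retention times of pure standards were taken from adduct peaks that were selected by computer and manually inspected. Over 3 months, mixtures of ~100 molecules were run by HPLC–quadrupole time-of-flight mass spectrometry in positive and negative ionization mode. The Zorbax Extend-C18 column (2.1 × 50 mm, 1.8 μm) ran at 100 μL/min in water and acetonitrile, each containing 0.1% formic acid, with 40 μL dead volume and 900 μL dwell volume.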
row,Structure (SMILES),RP-LC retention time [s]
1,Cc1ccc(N2CC(c3noc(-c4ccccc4OC(F)(F)F)n3)CC2=O)cc1 (stereo not given),819
2,Cc1ccc(CNC(=O)CCC2CCN(c3cc(NC4CC4)ncn3)CC2)o1,660
3,COc1cccc(-n2c(N3CCCC(C(=O)NCc4cccs4)C3)nc3ccsc3c2=O)c1 (stereo not given),822
4,CC(=O)SCC(Cc1ccccc1)C(=O)NCC(=O)OCc1ccccc1 (stereo not given),1080
5,O=C(Nc1cccc(OCc2nnc(-c3ccc(Cl)cc3)o2)c1)C1CCC1,978
6,Cc1ccc(NC(=O)N2CCN(c3cc(-c4ccncc4)[nH]n3)CC2)c(C)c1,615
7,COc1cc(CCNC(=O)c2c(N3CCCC3=O)c3cc(F)ccc3n2C)cc(OC)c1OC,762
8,CCOc1ccc(-n2cc(C(=O)OCC(=O)OC(C)(C)C)c3ccccc3c2=O)cc1,1220
9,Cc1ccc(-n2c(N)cc(=O)nc2SCC(=O)Nc2nc3ccc(C)cc3s2)cc1,686
10,CC(=O)Nc1ccc2c(c1)nc(CN1CCN(C(=O)c3ccco3)CC1)n2C,576
11,CCN1C(=O)COc2ccc(-c3nc(NC(=O)c4ccccc4C)sc3C)cc21,1010
12,Cc1ccc(NC(=O)C2CCN(C(=O)c3ncn4c3COC(c3ccc(F)cc3)C4)CC2)cc1C (stereo not given),848
13,Fc1ccccc1-c1nc(-c2ccc3nncn3c2)no1,785
14,CCOc1ccc(NC(=O)N2CCN(c3cc(C)nc(N4CCCC4)n3)CC2)cc1,681
15,CC(C)CC(=O)NCC(c1ccccc1Cl)c1c[nH]c2ccccc12 (stereo not given),984
16,CCc1nc(-c2cc(S(=O)(=O)N3CCC(C(=O)N4CCN(CC)CC4)CC3)c(C)s2)no1,673
17,COc1ccc(CC(=O)N2CCN(c3cc(C)n4cnnc4n3)CC2)cc1OC,578
18,CSc1ccc(-c2noc(Cn3c(=O)n(-c4ccccc4)c(=O)c4sccc43)n2)cc1,1020
19,COc1cccc(-c2nc3sc(C(=O)N(C)C)c(C)n3c2NC(C)(C)C)c1,773
20,COCCCNC(=O)C1CCN(Cc2cc3ccccc3n2Cc2ccccc2C)CC1,718
21,CC(C)CC(=O)N1CCC2(CC1)c1nccn1-c1ccccc1CN2C,580
22,O=C(CCCc1c[nH]c2ccccc12)NCCc1c[nH]c2ccccc12,830
23,CNC(=O)CCc1nc2ccccc2n(CC(=O)NCc2ccccc2Br)c1=O,700
24,O=C1c2c(O)cc(O)cc2OC(c2ccc(O)c(O)c2)C1O (stereo not given),687
25,CSCCC(NC(=O)COc1cccc2ccccc12)C(=O)O (stereo not given),769
26,c1ccc(C(O[C@@H]2CCCN(CCc3ccc4c(c3)OCO4)C2)c2ccccc2)cc1,961
27,CCOc1ccc(C2Cn3nnc(-c4nc(-c5ccccc5C)no4)c3CO2)cc1 (stereo not given),1270
28,O=C(Nc1ccccc1)N1CCC(N2C[C@H]3C[C@H](C2)[C@H]2CCCC(=O)N2C3)CC1,590
29,COc1ccc(-c2noc(-c3nn(-c4ccc(C)cc4)ccc3=O)n2)cc1,919

# Continued, values first:
row,RP-LC retention time [s],Structure (SMILES)
1,719,CN1C(=O)c2ccccc2Oc2ccc(C(=O)N3CCCC3)cc21
2,589,Cc1ccc(C(=O)NCCn2c(C)cnc2C)s1
3,609,CCOc1ccc(-n2c(CN3CCN(C(=O)NCCCOC)CC3)nc3cccnc32)cc1
4,1340,CCCOc1ccc(-c2noc(Cc3nc(-c4ccccc4)cs3)n2)cc1
5,822,CCN1c2ccc(F)cc2C(=O)NC12CCN(C(=O)c1ccc(F)c(F)c1)CC2
6,1280,Cc1ccc(-c2csc(Cc3nc(-c4ccccc4Cl)no3)n2)cc1
7,722,COc1ccc(-c2nnc(SCc3cc(=O)n4ccsc4n3)o2)cc1
8,989,Cc1ccc(C)c(NC(=O)CSc2nccc(N3CCN(c4cc(C)ccc4C)CC3)n2)c1
9,762,O=C(NC1CCN(c2cc(-c3ccc(Cl)cc3)[nH]n2)C1)c1ccc2cc[nH]c2c1 (stereo not given)
10,575,CCOC(=O)c1[nH]c2ccc(OC)cc2c1NC(=O)CN(C)C
11,649,COc1ccc(-c2nc3cnccn3c2Nc2ccc(C(=O)NCC3CCCO3)cc2)cc1 (stereo not given)
12,674,CCC(=O)N(C1CCOCC1)C1CCN(Cc2cn(CC)c3ccccc23)CC1
13,1120,CCOc1ccc(-n2c(N3CCSC3)nc3cc(C(=O)OC)ccc3c2=O)cc1
14,710,O=C(Cc1cccc(F)c1)NC1CCN(c2cc(-c3cccs3)[nH]n2)C1 (stereo not given)
15,653,COC(=O)CNC(=O)NCCn1c(C(F)(F)F)nc2ccccc21
16,828,COc1ccccc1OCC1c2ccsc2CCN1C(=O)CN(CC1CC1)C(C)=O (stereo not given)
17,701,O=C(Cn1nc2n(c1=O)CCCCC2)N1CCN(c2ccc(F)cc2)CC1
18,598,CCN1CCN(c2cc(C)c3cc(NC(=S)NCc4cc(OC)ccc4OC)ccc3n2)CC1

row,RP-LC retention time [s],Structure (SMILES)
1,795,COc1cc(NC(=O)Cc2csc3nc(-c4ccccc4)cn23)cc(OC)c1
2,1190,CCCN1C(=O)COc2ccc(-c3noc(-c4cccc(OC)c4)n3)cc21
3,928,COc1cc(-c2noc(-c3nn(-c4ccc(C)c(C)c4)ccc3=O)n2)cc(OC)c1OC
4,686,COc1ccc(-c2n[nH]c3c2C(c2cccc(O)c2)N(C)C3=O)cc1 (stereo not given)
5,700,O=C(NCCC1CCN(C(=O)Nc2ccc(F)cc2F)CC1)c1ccco1
6,747,Cc1nc2cc(-c3noc(CNC(=O)c4cccs4)n3)ccc2o1
7,833,Cc1cc(=O)oc2c3c(cc(OCC(=O)N[C@@H](C(=O)O)C(C)C)c12)OC(C)(C)CC3
8,839,Cc1ccc(Nc2c(-c3ccc(N(C)C)cc3)nc3ccc(C)cn23)cc1
9,682,O=C(NC1CCCC1)C1CCN(S(=O)(=O)c2cc(C(=O)N3CCOCC3)cs2)CC1
10,773,CCN1c2ccccc2C(=O)NC12CCN(C(=O)NCCc1ccccc1)CC2
11,1090,CCN(CC)c1nc2cc(C(=O)NCC3CC3)ccc2c(=O)n1Cc1ccc(C)cc1
12,636,CNC(=O)C1CCN(C(=O)Nc2ccc(NC(=O)Nc3ccccc3)cc2)CC1
13,639,COc1ccc(-c2cn3c(CC(=O)N4CCN(c5ncccn5)CC4)csc3n2)cc1OC
14,653,O=C(NC1CC1)c1ccc(-n2cccn2)nc1
15,615,O=C(c1cc(-c2ccncc2)n[nH]1)N1CCCC(C(=O)N2CCN(c3ccc(F)cc3)CC2)C1 (stereo not given)
16,731,O=C(CCC1CCCN(S(=O)(=O)c2ccc(F)cc2)C1)NC1CCS(=O)(=O)C1 (stereo not given)
17,904,O=C(Cc1csc(-c2ccccc2F)n1)NCCc1c[nH]c2ccccc12
18,980,CCc1nc(-c2ccc(-c3noc(C(C)NC(=O)c4ccco4)n3)cc2)cs1 (stereo not given)
